Converted amounts (≈) assume the structure as drawn.
How the values were obtained:
[1] = target: T1, MDR1 (P-glycoprotein, ABCB1) (Homo sapiens, UniProt P08183); assay: Inhibition of human recombinant MDR1 expressed in mouse L5178Y cells assessed as inhibition of rhodamine-123 efflux at 10^-5 M preincubated for 10 mins measured after 20 mins by FACS analysis; assay type: cell-based; settings: mouse L5178Y cells expressing human recombinant MDR1, probe rhodamine-123
[2] = target: T1, MDR1 (P-glycoprotein, ABCB1); assay: in vitro
Description: Inhibition of human recombinant MDR1 expressed in mouse L5178Y cells assessed as inhibition of rhodamine-123 efflux at 10^-4 M preincubated for 10 mins measured after 20 mins by FACS analysis

[3] = target: T2, Quinolone resistance protein NorA (Staphylococcus aureus) (UniProt P0A0J7); settings: SA-1199B, at 50 µM
T2 sequence (whole entry): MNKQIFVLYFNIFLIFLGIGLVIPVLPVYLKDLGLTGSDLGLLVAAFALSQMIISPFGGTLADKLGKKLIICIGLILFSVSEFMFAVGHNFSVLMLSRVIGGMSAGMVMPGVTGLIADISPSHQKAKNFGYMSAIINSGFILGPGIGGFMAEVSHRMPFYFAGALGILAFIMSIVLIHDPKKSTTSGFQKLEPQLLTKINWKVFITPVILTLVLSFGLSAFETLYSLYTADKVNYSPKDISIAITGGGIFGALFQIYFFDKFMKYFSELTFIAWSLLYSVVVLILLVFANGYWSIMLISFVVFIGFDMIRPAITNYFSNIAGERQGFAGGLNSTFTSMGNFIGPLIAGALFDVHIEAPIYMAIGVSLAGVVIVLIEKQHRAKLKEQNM
Description: Inhibition of norA-mediated ethidium bromide efflux in Staphylococcus aureus SA-1199B harboring grlA A116E mutant at 50 uM after 5 mins by fluorometric analysis

Staphylococcus aureus = assay: microbe, parasite or virus in culture; assay type: functional; settings: SA-1199B
Description: Antibacterial activity against Staphylococcus aureus SA-1199B harboring grlA A116E mutant by microdilution techniques

[4] = mouse L5178Y cells expressing human recombinant MDR1, probe rhodamine-123

| Structure (SMILES) | inhibition at 20 min, 100 µM [2, 4] [%] | inhibition [3] [%] | further results |
| --- | --- | --- | --- |
| CC[C@H]1CCc2nc(SCc3ccc(C(=O)O)cc3)c(C#N)c(C(F)(F)F)c2C1 | – | – | inhibition at 20 min, 10 µM [1]: 0.6% |
| C=C[C@H]1C[N@@]2CC[C@H]1C[C@@H]2[C@@H](O)c1ccnc2ccc(OC)cc12 [QUINIDINE] | – | – | inhibition at 20 min, 100 µM ([2]; l5178y): 21.1% |
| c1ccc(CCN(Cc2ccccc2)Cc2cccc(OCc3ccccc3)c2)cc1 | 2.2 | – | – |
| Cc1ccc(S(=O)(=O)Nc2ccc3c(c2)ncn3-c2ccccc2)cc1 | 2.3 | – | – |
| O=C1NC(=O)/C(=C/c2ccc(-c3cc(C(=O)O)ccc3Cl)o2)S1 | 2.6 | – | – |
| CCOC(=O)C1=C(COCCN)NC(C)=C(C(=O)OC)C1c1ccccc1Cl (configuration not stated) [AMLODIPINE] | – | 60.6 | inhibition at 20 min, 10 µM [1]: 52.8% |
| O=C1CCc2ccc(OCCCCN3CCN(c4cccc(Cl)c4Cl)CC3)cc2N1 [ARIPIPRAZOLE] | 99 | 92.3 | MIC (Staphylococcus aureus): > 100 µg/mL |
| Cn1cccc1-c1nc2cc(NC(=O)c3ccccc3)ccc2[nH]1 | 1.6 | – | – |
| COc1ccc(CCN2CCC(Nc3nc4ccccc4n3Cc3ccc(F)cc3)CC2)cc1 [ASTEMIZOLE] | – | 80.6 | MIC (Staphylococcus aureus): 100 µg/mL (≈ 218 µM); inhibition at 20 min, 10 µM [1]: 12.8% |
| CCOc1cc(CC(=O)N[C@@H](CC(C)C)c2ccccc2N2CCCCC2)ccc1C(=O)O [REPAGLINIDE] | 35 | 14 | – |
| COc1cc(C2=Nc3ccccc3SC2)cc(OC)c1OC | 64.7 | – | – |
| CCN(CC)CCOc1ccc(-c2cc(=O)c3ccccc3n2C)cc1 | – | – | inhibition at 20 min, 10 µM [1]: 2.6% |
| O=C1NCCN1CCN1CCC(c2cn(-c3ccc(F)cc3)c3ccc(Cl)cc23)CC1 [SERTINDOLE] | 74 | 81.8 | MIC (Staphylococcus aureus): 25 µg/mL (≈ 56.7 µM) |
| COc1ccc(C2=Nc3ccccc3SC2)cc1OC | 44.1 | – | – |
| N#Cc1c(C(F)(F)F)cc(Cc2ccccc2)nc1SCc1ccc(C(=O)O)cc1 | 2.6 | – | – |
| N#Cc1c(SCc2ccc(Cl)nc2)nc2c(c1C(F)(F)F)CCCC2 | 20.4 | – | – |
| CCN(CC)CCCN(c1ccccc1)C1Cc2ccccc2C1 [APRINDINE] | 16 | 51.6 | – |

| Structure (SMILES) | inhibition at 20 min, 100 µM [2, 4] [%] | inhibition [3] [%] | further results |
| --- | --- | --- | --- |
| C[C@@H](NCc1cccc(OCc2ccccc2)c1)[C@@H](O)c1ccccc1 | – | – | inhibition at 20 min, 10 µM [1]: 7.8% |
| CC[C@H](C)N1C(=O)S/C(=C/c2ccc(-c3cc(C(=O)O)ccc3Cl)o2)C1=O | – | – | inhibition at 20 min, 10 µM [1]: 0.7% |
| CCOC(=O)c1cn(C2CC2)c2cc(N3CCC4=C(C3)/C(=N/O)C(C)CS4)c(N)cc2c1=O (configuration not stated) | 40.6 | – | – |
| Cc1ccc(S(=O)(=O)Nc2ccc3c(c2)nc(C)n3Cc2ccccc2)cc1 | 21.7 | – | – |
| CN(C)C(=O)C(CCN1CCC(O)(c2ccc(Cl)cc2)CC1)(c1ccccc1)c1ccccc1 [LOPERAMIDE] | – | 77.7 | MIC (Staphylococcus aureus): > 100 µg/mL; inhibition at 20 min, 10 µM [1]: 4.5% |
| O=C1Cc2cc(CCN3CCN(c4nsc5ccccc45)CC3)c(Cl)cc2N1 [ZIPRASIDONE] | 19 | 86.6 | MIC (Staphylococcus aureus): > 100 µg/mL |
| COc1cccc(CNC(C)C(O)c2ccccc2)c1 (configuration not stated) | 2.1 | – | – |
| CCC(C)N1C(=O)S/C(=C\c2ccc(N3CCCC3)o2)C1=O (configuration not stated) | 11.3 | – | – |
| CCOC(=O)c1cn(C2CC2)c2cc(N3CCC4=C(C3)/C(=N/OC)C(C)CS4)c(N)cc2c1=O (configuration not stated) | 16.8 | – | – |
| CCCOc1ccc(-c2cc(=O)c3ccccc3n2C)cc1 | 1.9 | – | – |
| C=C[C@H]1CN2CC[C@H]1C[C@@H]2[C@@H](O)c1ccnc2ccc(OC)cc12 | – | 31.5 | – |
| C=CCc1ccccc1OCC(O)CNC(C)C (configuration not stated) [ALPRENOLOL] | 5 | – | – |
| Cc1ccc(S(=O)(=O)Nc2ccc3nc(-c4cccn4C)[nH]c3c2)cc1 | 4.3 | – | – |
| CC(C)(C)c1ccc(C(=O)CCCN2CCC(OC(c3ccccc3)c3ccccc3)CC2)cc1 [EBASTINE] | – | 88.3 | MIC (Staphylococcus aureus): > 100 µg/mL |
| CCC(C)N1C(=O)S/C(=C\c2ccc(-c3cc(C(=O)O)ccc3Cl)o2)C1=O (configuration not stated) | – | – | inhibition at 20 min, 10 µM [1]: 1.7% |
| CN(C)CCOc1ccc(-c2cc(=O)c3ccccc3n2C)cc1 | 3.2 | – | – |

Source: ChEMBL document CHEMBL2046272, “Ligand Promiscuity between the Efflux Pumps Human P-Glycoprotein and S. aureus NorA” (ACS Med Chem Lett, 2012)
